{
  "source": "patent US8829014B2",
  "about": "“Thiazole and thiophene analogues, and their use in treating autoimmune diseases and cancers” (Board of Supervisors of Louisiana State University and …, priority 2006, dated 2014)",
  "type_in_all_cases": "cell-based",
  "key": {"ARE from TNF-α": {"system": "ARE from TNF-α", "assay": "ARE screen: luciferase under post-transcriptional control of the ARE from TNF-α in RAW 264.7 cells", "details": "six concentrations 10 nM-3300 nM, 24 hr (FIG. 10)", "from_the_text": "Development of ARE Screen: The regulation of TNF-α and other cytokines that are involved in inflammation and cancer progression occurs, in part, at the post-transcriptional level through an AU-rich element in the 3′ UTR called ARE. The ARE regulates both the stability and the translational efficiency of the mRNA and thus represents a potential target for novel anti-inflammatory molecules. The 3′ UTR from TNF-α, which contains the ARE, was cloned in the proper orientation and used to screen a compound library as reported in reference 55. Briefly, the 3′ UTR was cloned into pMS 110, and both the UTR and parental plasmids were stably transfected into RAW264.7 cells, a macrophage cell line. Individual clones were propagated and tested for luciferase activity. […] The UTR-containing clones responded to LPS by inducing luciferase expression similar to the endogenous increase in TNF-α following LPS stimulation. […] Thus, molecules identified with this screening assay are also useful as anti-cancer agents. By analogy, thalidomide, which has been reported to work in part through posttranscriptional regulation of TNF-α, has been approved for the treatment of multiple myeloma and is now in development for the treatment of cancers.\nAs in the eIF4E assay, AREs are responsible for post-transcriptional regulation of gene expression, influencing both translation and mRNA stability. […]"}, "[1]": {"system": "Human umbilical vein endothelial cells (HUVEC)", "assay": "LDH release cytotoxicity in HUVEC", "details": "human, 48 h, 10 μM", "method": "(§1) Additional compounds have also been tested for their ability to inhibit both TNF-α-induced NF-κB—expression and PMA-induced AP-1 expression. In both tests, the compound was added for 1 h, then the appropriate inducer was added, and luciferase activity was monitored 24 h later. Values were then normalized to the vehicle control, DMSO. Following the initial luciferase screens, studies were conducted to assess the cytotoxicity of the compounds in normal cells such as VSMC, HUVEC, or HPT cells. Human umbilical vein endothelial cells (HUVEC) represent the normal endothelium, vascular smooth muscle cells (VSMC) were represented by cells from the adult rat aorta, and human proximal tubule (HPT) cells represent the normal proximal tubule in vivo. These cells were grown to near confluency in multi-well plates, and were then treated for 48 h with either vehicle (0.1% DMSO) or 10 μM of each drug candidate. Following treatment, the media from the VSMC and HUVEC incubations were removed, and the amount of lactate dehydrogenase (LDH) released into the medium was determined with a commercial kit. LDH is normally confined to the cytosol, and its release represents “leakiness” of the plasma membrane. LDH activity was expressed as % increase over vehicle-treated cells. In another assay of viability, the treated VSMC and HUVEC were removed by trypsinization and treated with trypan blue, a dye that is taken up only by dead cells. The number of both live and dead cells was counted using an automated cell viability analyzer. The % decrease in numbers of viable cells was determined. Toxicity in the treated HPT cells was determined by the ethidium homodimer (EthHD) uptake assay. EthHD is a fluorescent dye that is excluded from live cells, but is taken up by cells that have lost permeability barriers. Inside the cell, EthHD produces a strong fluorescent signal, which is proportional to the number of dead cells. Results were expressed as a % increase in cell death over vehicle-treated cells. The lead compounds were also tested in two pairs of cell lines from either the skin or prostate, one tumorigenic and one non-tumorigenic, to test for any differences in toxicity or heightened sensitivity in the tumorigenic lines. The cells were treated for 48 h with vehicle (0.1% DMSO) or 10 μM of each drug candidate. Following treatment, the viability of the cells was determined by the MTT assay. In this assay, the MTT dye is converted only in viable cells by intracellular enzymes to a colorimetric product that is quantitated by a microplate reader.\n(§2) For the results in Table 13, cells were grown to near confluency in multi-well plates, then treated for 48 h with either vehicle (0.1% DMSO) or 10 μM of each drug candidate. Following treatment, the media from the VSMC and HUVEC incubations were removed, and the amount of lactate dehydrogenase (LDH) released into the medium was determined with a commercial kit and expressed as a % increase over vehicle-treated cells. HPT toxicity was determined by the ethidium homodimer (EthHD) uptake assay. Inside the cell, EthHD produces a strong fluorescent signal, which is proportional to the amount of cell death, expressed as a % increase in cell death over vehicle-treated cells. The lead compounds were also tested in two pairs of cell lines from the skin or prostate, one tumorigenic and one non-tumorigenic, to test for differing toxicity or heightened sensitivity in the tumorigenic lines. The cells were treated for 48 h with vehicle (0.1% DMSO) or 10 μM of each drug candidate, and the viability of the cells was determined by the MTT assay, expressed as a % decrease in viability compared to vehicle-treated cells. The in vivo inflammation model measured the % inhibition of rat paw edema induced by carageenan injection."}, "[2]": {"system": "Human umbilical vein endothelial cells (HUVEC)", "assay": "Trypan blue viability count in HUVEC", "details": "human, 48 h, 10 μM", "method": "as §1"}, "[3]": {"system": "human proximal tubule (HPT) cells", "assay": "Ethidium homodimer (EthHD) uptake toxicity assay in HPT cells", "details": "10 μM, 48 h, relative to vehicle", "method": "as §1, §2"}, "[4]": {"system": "vascular smooth muscle cells (VSMC)", "assay": "LDH release cytotoxicity in VSMC", "details": "rat, 48 h, 10 μM", "method": "as §1, §2"}, "FaDu cells": {"system": "FaDu cells", "from_the_text": "[…]. Values greater than 1.0 indicate activation, and values less than 1.0 indicate inhibition.) The compounds that inhibited luciferase translation might, potentially, act by generally inhibiting translation, by reducing cell numbers through inhibition of growth or by cell toxicity, or specifically by inhibiting highly cap-dependent translation. To analyze any general effects on cell viability, fourteen compounds were selected that altered luciferase activity (including a few that increased activity) to test for any effects on cell number. An MTT assay was used to monitor compounds for inhibition of cell growth and cell toxicity. The compounds were tested once in a six-point dose-response assay starting at 10 nM and increasing to 3.3 μM. FaDu cells were plated in a 96-well plate for 24 hr before addition of the compounds. Each compound was added in each of six concentrations (10 nM, 30 nM, 100 nM, 330 nM, 1000 nM, and 3300 nM), and each concentration was tested in triplicate. In addition, DMSO was used as a control. After incubating for 24 hr, the cell number was measured using the MTT assay."}},
  "note": "Marks after values point to notes of the source that are not given here.",
  "data": [
    {"molecule": "COc1ccc(-n2c(-c3sc(Nc4ccc(Cl)cc4)nc3-c3ccccc3)nc3ccccc3c2=O)cc1", "note": "[Example 225, 2-[2-(4-Chloro-phenylamino)-4-phenyl-thiazol-5-yl]-3-(4-methoxyphenyl)-3H-quinazolin-4-one]", "values": [
      {"measurement": "luciferase expression in the presence of ARE", "setting": "ARE from TNF-α", "result": "substantial dose response"}
    ]},
    {"molecule": "CNc1nc(C)c(-c2nc3ccccc3c(=O)n2-c2ccc(Cl)cc2)s1", "note": "[Example 244, 2-(4-Methyl-2-methylamino-thiazol-5-yl)-3-(4-chloro-phenyl)-3H-quinazolin-4-one]", "values": [
      {"measurement": "LDH release % Increase HUVEC", "setting": "[1]", "result": "124# %"},
      {"measurement": "Viable Cells % Decrease HUVEC", "setting": "[2]", "result": "63# %"},
      {"measurement": "Cell Death (EthHD) % Increase HPT", "setting": "[3]", "result": "180# %"},
      {"measurement": "LDH release % Increase VSMC", "setting": "[4]", "result": "68# %"}
    ]},
    {"molecule": "Bis-[2-(4-Chloro-phenylamino)-4-benzayl-thiazole-5-yl]-methanone [Example 134]", "values": [
      {"measurement": "inhibition of cell viability", "setting": "FaDu cells", "result": "~20", "unit": "%"}
    ]}
  ]
}
